In brackets after ≈: the same amount, converted by molar mass.
Test system: Human alphaherpesvirus 1
Assay: Antiviral activity against various strains of Herpes Simplex virus type I
Format: functional
Details: read-out: ID50 (the source's name)

**Q.** With O=c1[nH]c(=O)n([C@H]2C[C@H](O)[C@@H](CO)O2)cc1/C(F)=C(\F)Cl.O=c1[nH]c(=O)n([C@H]2C[C@H](O)[C@@H](CO)O2)cc1C(F)=C(Cl)Cl as the compound, how does the IC50 read?
**A.** Its IC50 is 24 µg/mL.

**Q.** Which IC50 does the source give for O=c1[nH]c(=O)n([C@H]2C[C@H](O)[C@@H](CO)O2)cc1C(F)=C(Cl)Cl here?
**A.** The IC50 was 26 µg/mL (≈ 76.2 µM).

**Q.** How did the IC50 turn out when Nc1nc2c(ncn2COCCO)c(=O)[nH]1 [ACYCLOVIR] was run?
**A.** Its IC50 is 0.8 µg/mL (≈ 3.55 µM).

**Q.** How did the IC50 turn out when Nc1ncnc2c1ncn2[C@@H]1O[C@H](CO)[C@@H](O)[C@H]1O [ADENOSINE] was run?
**A.** The IC50 was 21 µg/mL (≈ 78.6 µM).

**Q.** How did the IC50 turn out when O=c1[nH]c(=O)n([C@H]2C[C@H](O)[C@@H](CO)O2)cc1/C=C/Br [BRIVUDINE] was run?
**A.** Its IC50 is 0.07 µg/mL (≈ 0.21 µM).

**Q.** Which IC50 does the source give for O=c1[nH]c(=O)n([C@H]2C[C@H](O)[C@@H](CO)O2)cc1I [IDOXURIDINE] here?
**A.** Its IC50 is 4.4 µg/mL (≈ 12.4 µM).

Source: ChEMBL document CHEMBL1121969, “Synthesis and antiviral properties of some 2'-deoxy-5-(fluoroalkenyl)uridines” (1982)
